Results published in patent US6355799B1, “Substituted benzene compounds, process for their preparation, and herbicidal and defoliant compositions containing them” (ISK Americas Incorporated, priority 1997, dated 2002).

Tests used:
Type in all cases: in vivo
[1] = tested on: redroot pigweed (Amaranthus retroflexus, AMARE); assay: Pre-emerge test, greenhouse herbicide activity screening; conditions: pre-emerge, phytotoxicity rating 0-100 at 14 days after application
Summary of the method: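 Sandy loam pots; pre-emerge: sown 1 d pre-spray, surface-watered after, then bottom-watered. Post-emerge: sown 8–21 d before, 2–3 leaf stage, + 0.25% v/v NIS, bottom-watered. Acetone, 187 l/ha track spray, 15–1000 g ai/ha. 0–100 injury score, day 14.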

[2] = tested on: johnsongrass (Sorghum halepense, SORHA); assay: Post-emerge test, greenhouse herbicide activity screening; conditions: post-emerge; for Post-emerge Herbicidal Activity SORHA: phytotoxicity rating 0-100 at 14 days after application; for phytotoxicity rating SORHA: 14 days after application, rating scale 0-100
Summary of the method: (§1)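 Herbicidal damage is scored 0 (none) to 100 (complete plant death) two weeks after a simulated field spray. Rates span 15–1000 g ai/ha, delivered in acetone at 187 l/ha. For post-emergence treatments, plants have 2–3 leaves and the spray carries 0.25% v/v non-ionic surfactant.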

[3] = tested on: lambsquarters (Chenopodium album, CHEAL); assay: as above; conditions: post-emerge; for Post-emerge Herbicidal Activity CHEAL: phytotoxicity rating 0-100 at 14 days after application; for phytotoxicity rating CHEAL: 14 days after application, rating scale 0-100
Summary of the method: as §1

[4] = tested on: barnyardgrass (Echinochloa crus-galli, ECHCG); assay: as above; conditions: post-emerge; for Post-emerge Herbicidal Activity ECHCG: phytotoxicity rating 0-100 at 14 days after application; for phytotoxicity rating ECHCG: 14 days after application, rating scale 0-100
Summary of the method: as §1

[5] = tested on: large crabgrass (Digitaria sanguinalis, DIGSA); assay: as above; conditions: post-emerge; for Post-emerge Herbicidal Activity DIGSA: phytotoxicity rating 0-100 at 14 days after application; for phytotoxicity rating DIGSA: 14 days after application, rating scale 0-100
Summary of the method: as §1

[6] = tested on: ivyleaf morningglory (Ipomoea hederacea, IPOHE); assay: as above; conditions: post-emerge; for Post-emerge Herbicidal Activity IPOHE: phytotoxicity rating 0-100 at 14 days after application; for phytotoxicity rating IPOHE: 14 days after application, rating scale 0-100
Summary of the method: as §1

[7] = tested on: redroot pigweed (Amaranthus retroflexus, AMARE); assay: as above; conditions: post-emerge; for Post-emerge Herbicidal Activity AMARE: phytotoxicity rating 0-100 at 14 days after application; for phytotoxicity rating AMARE: 14 days after application
Summary of the method: as §1

[8] = tested on: sicklepod (Cassia obtusifolia, CASOB); assay: as above; conditions: post-emerge; for Post-emerge Herbicidal Activity CASOB: phytotoxicity rating 0-100 at 14 days after application; for phytotoxicity rating CASOB: 14 days after application, rating scale 0-100
Summary of the method: as §1

[9] = tested on: green foxtail (Setaria viridis, SETVI); assay: as above; conditions: post-emerge; for Post-emerge Herbicidal Activity SETVI: phytotoxicity rating 0-100 at 14 days after application; for phytotoxicity rating SETVI: 14 days after application, rating scale 0-100
Summary of the method: as §1

[10] = tested on: velvetleaf (Abutilon theophrasti, ABUTH); assay: as above; conditions: post-emerge; for Post-emerge Herbicidal Activity ABUTH: phytotoxicity rating 0-100 at 14 days after application; for phytotoxicity rating ABUTH: 14 days after application, rating scale 0-100
Summary of the method: as §1

[11] = tested on: field corn (Zea mays L., var. Dekalb 535, CORN); assay: Pre-emerge test, crop safety; conditions: crop damage, pre-emerge, phytotoxicity rating 0-100 at 14 days after application
Summary of the method: as §1

[12] = tested on: upland rice (Oryza sp., var. Tebonnet, RICE); assay: Pre-emerge test, crop safety; conditions: crop damage, pre-emerge, phytotoxicity rating 0-100 at 14 days after application
Summary of the method: as §1

[13] = tested on: johnsongrass (Sorghum halepense, SORHA); assay: Pre-emerge test, greenhouse herbicide activity screening; conditions: pre-emerge, phytotoxicity rating 0-100 at 14 days after application
Summary of the method: (§2)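 Compounds in acetone were track-sprayed at 187 l/ha, 15–1000 g ai/ha, onto sandy loam pots. Pre-emerge seeds were sown one day before spraying, with surface watering afterwards. Post-emerge plants were at the 2–3 leaf stage and sprayed with 0.25% v/v non-ionic surfactant. Injury was rated 0–100 at 14 days.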

[14] = tested on: lambsquarters (Chenopodium album, CHEAL); assay: as above; conditions: pre-emerge, phytotoxicity rating 0-100 at 14 days after application
Summary of the method: as §2

[15] = tested on: barnyardgrass (Echinochloa crus-galli, ECHCG); assay: as above; conditions: pre-emerge, phytotoxicity rating 0-100 at 14 days after application
Summary of the method: as §2

[16] = tested on: large crabgrass (Digitaria sanguinalis, DIGSA); assay: as above; conditions: pre-emerge, phytotoxicity rating 0-100 at 14 days after application
Summary of the method: as §2

[17] = tested on: ivyleaf morningglory (Ipomoea hederacea, IPOHE); assay: as above; conditions: pre-emerge, phytotoxicity rating 0-100 at 14 days after application
Summary of the method: as §2

[18] = tested on: sicklepod (Cassia obtusifolia, CASOB); assay: as above; conditions: pre-emerge, phytotoxicity rating 0-100 at 14 days after application
Summary of the method: as §2

[19] = tested on: green foxtail (Setaria viridis, SETVI); assay: as above; conditions: pre-emerge, phytotoxicity rating 0-100 at 14 days after application
Summary of the method: as §2

[20] = tested on: velvetleaf (Abutilon theophrasti, ABUTH); assay: as above; conditions: pre-emerge, phytotoxicity rating 0-100 at 14 days after application
Summary of the method: as §2

[21] = tested on: field corn (Zea mays L., var. Dekalb 535, CORN); assay: Post-emerge test, crop safety; conditions: post-emerge; for Post-emerge Herbicidal Activity CORN: crop damage rating 0-100 at 14 days after application; for phytotoxicity rating CORN (crop damage): 14 days after application, rating scale 0-100
Summary of the method: as §2

[22] = tested on: upland rice (Oryza sp., var. Tebonnet, RICE); assay: Post-emerge test, crop safety; conditions: post-emerge; for Post-emerge Herbicidal Activity RICE: crop damage rating 0-100 at 14 days after application; for phytotoxicity rating RICE (crop damage): 14 days after application, rating scale 0-100
Summary of the method: as §2

O=C(Nc1cc(Cl)ccc1-n1c(=O)n2n(c1=O)CCCC2)c1ccc2ccccc2c1 [9-19]
Pre-emerge Herbicidal Activity AMARE ([1]; rate 63 g ai/ha): 100
Pre-emerge Herbicidal Activity AMARE ([1]; rate 250 g ai/ha): 100
Post-emerge Herbicidal Activity SORHA ([2]; 63 g ai/ha): 0
Post-emerge Herbicidal Activity SORHA ([2]; 250 g ai/ha): 0
Post-emerge Herbicidal Activity CHEAL ([3]; 63 g ai/ha): 100
Post-emerge Herbicidal Activity CHEAL ([3]; 250 g ai/ha): 100
Post-emerge Herbicidal Activity ECHCG ([4]; 63 g ai/ha): 0
Post-emerge Herbicidal Activity ECHCG ([4]; 250 g ai/ha): 10
Post-emerge Herbicidal Activity DIGSA ([5]; 63 g ai/ha): 0
Post-emerge Herbicidal Activity DIGSA ([5]; 250 g ai/ha): 10
Post-emerge Herbicidal Activity IPOHE ([6]; 63 g ai/ha): 75
Post-emerge Herbicidal Activity IPOHE ([6]; 250 g ai/ha): 90
Post-emerge Herbicidal Activity AMARE ([7]; 63 g ai/ha): 80
Post-emerge Herbicidal Activity AMARE ([7]; 250 g ai/ha): 98
Post-emerge Herbicidal Activity CASOB ([8]; 63 g ai/ha): 80
Post-emerge Herbicidal Activity CASOB ([8]; 250 g ai/ha): 95
Post-emerge Herbicidal Activity SETVI ([9]; 63 g ai/ha): 10
Post-emerge Herbicidal Activity SETVI ([9]; 250 g ai/ha): 20
Post-emerge Herbicidal Activity ABUTH ([10]; 63 g ai/ha): 100
Post-emerge Herbicidal Activity ABUTH ([10]; 250 g ai/ha): 100
Pre-emerge Herbicidal Activity CORN ([11]; rate 63 g ai/ha): 0
Pre-emerge Herbicidal Activity CORN ([11]; rate 250 g ai/ha): 0
Pre-emerge Herbicidal Activity RICE ([12]; rate 63 g ai/ha): 30
Pre-emerge Herbicidal Activity RICE ([12]; rate 250 g ai/ha): 50
Pre-emerge Herbicidal Activity SORHA ([13]; rate 63 g ai/ha): 0
Pre-emerge Herbicidal Activity SORHA ([13]; rate 250 g ai/ha): 20
Pre-emerge Herbicidal Activity CHEAL ([14]; rate 63 g ai/ha): 100
Pre-emerge Herbicidal Activity CHEAL ([14]; rate 250 g ai/ha): 100
Pre-emerge Herbicidal Activity ECHCG ([15]; rate 63 g ai/ha): 0
Pre-emerge Herbicidal Activity ECHCG ([15]; rate 250 g ai/ha): 0
Pre-emerge Herbicidal Activity DIGSA ([16]; rate 63 g ai/ha): 0
Pre-emerge Herbicidal Activity DIGSA ([16]; rate 250 g ai/ha): 80
Pre-emerge Herbicidal Activity IPOHE ([17]; rate 63 g ai/ha): 30
Pre-emerge Herbicidal Activity IPOHE ([17]; rate 250 g ai/ha): 0
Pre-emerge Herbicidal Activity CASOB ([18]; rate 63 g ai/ha): 0
Pre-emerge Herbicidal Activity CASOB ([18]; rate 250 g ai/ha): 20
Pre-emerge Herbicidal Activity SETVI ([19]; rate 63 g ai/ha): 0
Pre-emerge Herbicidal Activity SETVI ([19]; rate 250 g ai/ha): 60
Pre-emerge Herbicidal Activity ABUTH ([20]; rate 63 g ai/ha): 100
Pre-emerge Herbicidal Activity ABUTH ([20]; rate 250 g ai/ha): 100
Post-emerge Herbicidal Activity CORN ([21]; 63 g ai/ha): 10
Post-emerge Herbicidal Activity CORN ([21]; 250 g ai/ha): 10
Post-emerge Herbicidal Activity RICE ([22]; 63 g ai/ha): 15
Post-emerge Herbicidal Activity RICE ([22]; 250 g ai/ha): 25

Cc1ccccc1COC(=O)Nc1c(C)c(Cl)cc(F)c1-n1c(=O)cc(C(F)(F)F)n(C)c1=O [4-56]
Pre-emerge Herbicidal Activity AMARE ([1]; rate 63 g ai/ha): 100
Pre-emerge Herbicidal Activity AMARE ([1]; rate 250 g ai/ha): 100
phytotoxicity rating SORHA ([2]; 63 g ai/ha): 40
phytotoxicity rating SORHA ([2]; 250 g ai/ha): 90
phytotoxicity rating CHEAL ([3]; 63 g ai/ha): 100
phytotoxicity rating CHEAL ([3]; 250 g ai/ha): 100
phytotoxicity rating ECHCG ([4]; 63 g ai/ha): 50
phytotoxicity rating ECHCG ([4]; 250 g ai/ha): 90
phytotoxicity rating DIGSA ([5]; 63 g ai/ha): 20
phytotoxicity rating DIGSA ([5]; 250 g ai/ha): 70
phytotoxicity rating IPOHE ([6]; 63 g ai/ha): 100
phytotoxicity rating IPOHE ([6]; 250 g ai/ha): 100
phytotoxicity rating AMARE ([7]; 63 g ai/ha, rating scale 0-100 (0 no damage, 100 complete death)): 100
phytotoxicity rating AMARE ([7]; 250 g ai/ha, rating scale 0-100): 100
phytotoxicity rating CASOB ([8]; 63 g ai/ha): 100
phytotoxicity rating CASOB ([8]; 250 g ai/ha): 100
phytotoxicity rating SETVI ([9]; 63 g ai/ha): 90
phytotoxicity rating SETVI ([9]; 250 g ai/ha): 100
phytotoxicity rating ABUTH ([10]; 63 g ai/ha): 100
phytotoxicity rating ABUTH ([10]; 250 g ai/ha): 100
Pre-emerge Herbicidal Activity CORN ([11]; rate 63 g ai/ha): 35
Pre-emerge Herbicidal Activity CORN ([11]; rate 250 g ai/ha): 80
Pre-emerge Herbicidal Activity RICE ([12]; rate 63 g ai/ha): 50
Pre-emerge Herbicidal Activity RICE ([12]; rate 250 g ai/ha): 90
Pre-emerge Herbicidal Activity SORHA ([13]; rate 63 g ai/ha): 50
Pre-emerge Herbicidal Activity SORHA ([13]; rate 250 g ai/ha): 90
Pre-emerge Herbicidal Activity CHEAL ([14]; rate 63 g ai/ha): 100
Pre-emerge Herbicidal Activity CHEAL ([14]; rate 250 g ai/ha): 100
Pre-emerge Herbicidal Activity ECHCG ([15]; rate 63 g ai/ha): 50
Pre-emerge Herbicidal Activity ECHCG ([15]; rate 250 g ai/ha): 80
Pre-emerge Herbicidal Activity DIGSA ([16]; rate 63 g ai/ha): 50
Pre-emerge Herbicidal Activity DIGSA ([16]; rate 250 g ai/ha): 95
Pre-emerge Herbicidal Activity IPOHE ([17]; rate 63 g ai/ha): 40
Pre-emerge Herbicidal Activity IPOHE ([17]; rate 250 g ai/ha): 100
Pre-emerge Herbicidal Activity CASOB ([18]; rate 63 g ai/ha): 10
Pre-emerge Herbicidal Activity CASOB ([18]; rate 250 g ai/ha): 100
Pre-emerge Herbicidal Activity SETVI ([19]; rate 63 g ai/ha): 90
Pre-emerge Herbicidal Activity SETVI ([19]; rate 250 g ai/ha): 95
Pre-emerge Herbicidal Activity ABUTH ([20]; rate 63 g ai/ha): 100
Pre-emerge Herbicidal Activity ABUTH ([20]; rate 250 g ai/ha): 100
phytotoxicity rating CORN (crop damage) ([21]; 63 g ai/ha): 80
phytotoxicity rating CORN (crop damage) ([21]; 250 g ai/ha): 100
phytotoxicity rating RICE (crop damage) ([22]; 63 g ai/ha): 65
phytotoxicity rating RICE (crop damage) ([22]; 250 g ai/ha): 85
